Laboratory results published in ChEMBL document CHEMBL1121877, “Isomeric phenylthioimidazo[1,2-alpha]pyridines as anthelmintics” (1981).

Assays:
Type in all cases: functional
[1] = species: Mus musculus; test: Compound (1000 p.p.m.) was tested for percent reduction of Nematospiroides dubius in mice
[2] = species: Mus musculus; test: Compound (125 p.p.m.) was tested for percent reduction of Nematospiroides dubius in mice
[3] = species: Mus musculus; test: Compound (250 p.p.m.) was tested for percent reduction of Nematospiroides dubius in mice
[4] = species: Mus musculus; test: Compound (500 p.p.m.) was tested for percent reduction of Nematospiroides dubius in mice
[5] = species: Mus musculus; test: Compound (62.5 p.p.m.) was tested for percent reduction of Nematospiroides dubius in mice

SMILES	Reduction [1]	Reduction [2]	Reduction [3]	Reduction [4]	Reduction [5]
COC(=O)Nc1cn2ccccc2n1	54%				
COC(=O)Nc1cn2c(Sc3ccccc3)cccc2n1	0%				
COC(=O)Nc1cn2cc(Sc3ccccc3)ccc2n1		75%	98%	100%	20%
COC(=O)Nc1cn2cccc(Sc3ccccc3)c2n1	0%				
COC(=O)Nc1cn2cc([S+]([O-])c3ccccc3)ccc2n1 (stereo not given)		100%	100%		90%
COC(=O)Nc1cn2ccc(Sc3ccccc3)cc2n1	0%				
CC(C)OC(=O)Nc1ccc2[nH]c(-c3cscn3)nc2c1 [CAMBENDAZOLE]	100%	0%	20%	80%	0%
COC(=O)Nc1nc2cc(Sc3ccccc3)ccc2[nH]1 [FENBENDAZOLE]		74%	97%	100%	0%
c1ccc2[nH]c(-c3cscn3)nc2c1 [THIABENDAZOLE]	87%	0%	0%	47%	0%
